Test results: US20220281831A1, “FUSED-GLUTARIMIDE CRBN LIGANDS AND USES THEREOF” (Kymera Therapeutics, Inc., priority 2019, published 2022)
pIC50: −log10 of the molar value.

Key:
[1] = target: His-tagged CRBN-DDB1 complex (Homo sapiens, UniProt Q96SW2); test: Time-Resolved Fluorescence Resonance Energy Transfer (TR-FRET / HTRF) CRBN binding assay, displacement of Cy5-labeled thalidomide; conditions: His-CRBN-DDB1, Cy5-thalidomide 8 nM, 1 hour room temperature
CRBN-DDB1 = CRBN-DDB1 (Homo sapiens, UniProt Q96SW2); test: Fluorescence Polarization (FP) CRBN binding assay, probe TM-493 (FAM-BB-100); conditions: CRBN-DDB1, TM-493 probe, 60 min room temperature
Sequence of CRBN-DDB1 (Q96SW2 whole entry): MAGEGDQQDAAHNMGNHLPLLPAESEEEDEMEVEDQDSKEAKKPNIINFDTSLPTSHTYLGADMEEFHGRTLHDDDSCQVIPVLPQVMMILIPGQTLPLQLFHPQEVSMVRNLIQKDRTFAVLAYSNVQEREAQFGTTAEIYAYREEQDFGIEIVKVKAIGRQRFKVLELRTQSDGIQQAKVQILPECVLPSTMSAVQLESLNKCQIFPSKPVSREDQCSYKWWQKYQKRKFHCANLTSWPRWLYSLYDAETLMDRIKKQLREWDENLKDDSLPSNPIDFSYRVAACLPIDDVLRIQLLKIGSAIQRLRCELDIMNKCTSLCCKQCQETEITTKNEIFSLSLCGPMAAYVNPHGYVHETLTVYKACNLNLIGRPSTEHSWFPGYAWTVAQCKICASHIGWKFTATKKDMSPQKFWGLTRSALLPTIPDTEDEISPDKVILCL
Sequence of CRBN-DDB1 (Q16531 whole entry partner): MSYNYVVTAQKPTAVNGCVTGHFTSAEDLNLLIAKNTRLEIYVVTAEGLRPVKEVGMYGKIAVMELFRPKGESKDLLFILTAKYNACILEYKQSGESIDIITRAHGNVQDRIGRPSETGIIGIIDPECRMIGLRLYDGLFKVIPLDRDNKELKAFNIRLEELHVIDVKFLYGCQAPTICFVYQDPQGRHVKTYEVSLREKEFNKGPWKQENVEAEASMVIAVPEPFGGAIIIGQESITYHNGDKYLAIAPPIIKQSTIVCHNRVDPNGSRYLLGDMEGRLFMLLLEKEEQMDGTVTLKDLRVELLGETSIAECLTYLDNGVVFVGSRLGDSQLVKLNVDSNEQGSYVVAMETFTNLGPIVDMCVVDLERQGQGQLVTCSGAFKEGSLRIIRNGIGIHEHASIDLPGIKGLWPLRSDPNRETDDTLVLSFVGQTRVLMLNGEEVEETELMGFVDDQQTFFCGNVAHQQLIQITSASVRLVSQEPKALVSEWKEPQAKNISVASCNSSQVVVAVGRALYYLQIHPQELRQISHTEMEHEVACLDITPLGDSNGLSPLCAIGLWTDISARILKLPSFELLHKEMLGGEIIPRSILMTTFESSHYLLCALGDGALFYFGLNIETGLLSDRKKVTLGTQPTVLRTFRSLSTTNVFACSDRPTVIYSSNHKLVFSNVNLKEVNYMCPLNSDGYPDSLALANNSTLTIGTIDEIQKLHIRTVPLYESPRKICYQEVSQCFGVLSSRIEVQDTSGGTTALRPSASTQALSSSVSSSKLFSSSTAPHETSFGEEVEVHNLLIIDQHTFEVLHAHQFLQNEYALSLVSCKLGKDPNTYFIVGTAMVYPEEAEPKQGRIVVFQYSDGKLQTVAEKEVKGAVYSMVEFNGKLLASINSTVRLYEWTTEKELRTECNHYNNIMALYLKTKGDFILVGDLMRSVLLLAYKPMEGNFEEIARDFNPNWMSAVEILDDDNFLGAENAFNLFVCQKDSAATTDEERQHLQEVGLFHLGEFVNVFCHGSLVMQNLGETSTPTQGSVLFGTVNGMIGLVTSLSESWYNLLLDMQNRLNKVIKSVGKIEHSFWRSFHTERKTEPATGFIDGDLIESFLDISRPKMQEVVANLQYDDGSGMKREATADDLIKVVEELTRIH
Protocol: Fluorescence Polarization (FP) Assay
Materials: PerkinElmer EnVision 2104 Multilabel Reader, PerkinElmer FITC FP dual emission Label 2100-8060, Corning 384-well microplate #4514, V-CMR-TM-493 (FAM-BB-100), and CRBN-DDB1-180605.
Methods: Dilution buffer (50 mM HEPES-Na pH 7.5, 100 mM NaCl, 2 mM DTT, and 0.005% Tween-20) and compound DMSO dilutions were prepared. 4× compound working solutions were made with 8% DMSO (4×) and 13.8 μL/well of dilution buffer was placed in a new 96-well plate and 1.2 μL/well of above compound DMSO dilutions were added to the wells. 40 nM (4×) TM-493 in dilution buffer was prepared from a 10 μM DMSO stock and 15 μL per well of the TM-493 working solution was transferred into the compound working solution. 160 nM (2×) CRBN-DDB1 working solution was prepared with Dilution Buffer and 10 μL/well were added into a 384-well plate. 10 μL per well of the TM-493/compound mixture were transferred into the 384-well plate. The “positive control” was sample without protein and compound in 2% DMSO. After incubation at room temperature for 60 min, data was collected and read on data on an EnVision with the following setting: Excitation Light (%): 100; Measurement Height: 9.4; G-Factor: 1; Detector Gain 1: 200; Detector Gain 2: 200; Flash Number: 100. Data was processed using GraphPad Prism 7.0
The compound numbers correspond to the compound numbers in Table 1.

Sequence of His-tagged CRBN-DDB1 complex (Q96SW2 whole entry): as the sequence (Q96SW2 whole entry) above
Sequence of His-tagged CRBN-DDB1 complex (Q16531 whole entry partner): as the sequence (Q16531 whole entry partner) above

SMILES	pIC50 [1]	pIC50 (CRBN-DDB1)
O=C1Cc2ccc(Br)cc2C(=O)N1 [Compound I-7, 7-Bromo-2,4-dihydroisoquinoline-1,3-dione]	4.00 to 4.52	< 4.00
O=C1Cc2cccc(Br)c2C(=O)N1 [Compound I-8, 8-Bromo-2,4-dihydroisoquinoline-1,3-dione]	4.52 to 5.00	< 4.00
O=C1Cc2ccc(O)cc2C(=O)N1 [Compound I-19, 7-hydroxy-2,4-dihydroisoquinoline-1,3-dione]	> 5.00	< 4.00
NC(=O)c1ccc2c(c1)C(=O)NC(=O)C2 [Compound I-20, 1,3-dioxo-2,4-dihydroisoquinoline-7-carboxamide]	4.00 to 4.52	< 4.00
Cc1ncoc1-c1cccc2c1C(=O)NC(=O)C2 [Compound I-25]		< 4.00
O=C1NC(=O)c2c(Br)cccc21 [Compound I-29, 4-bromo-2H-isoindole-1,3-dione]	< 4.00	< 4.00
Cc1ccccc1-c1cccc2c1C(=O)NC2=O [Compound I-31, 4-(2-methylphenyl)-2H-isoindole-1,3-dione]	4.00 to 4.52	< 4.00
Cc1ncoc1-c1cccc2c1C(=O)NC2=O [Compound I-33, 4-(4-methyl-1,3-oxazol-5-yl)-2H-isoindole-1,3-dione]	< 4.00	< 4.00
O=C1NC(=O)C(F)(F)c2cccc(Br)c21 [Compound I-49]	< 4.00	< 4.00
O=C1NC(=O)C(F)(F)c2cccc(C(=O)N3CCc4ccccc43)c21 [Compound I-50]	< 4.00	< 4.00
O=c1[nH]c(=O)c2cc(Br)ccc2o1 [Compound I-53, 6-Bromo-3H-1,3-benzoxazine-2,4-dione]	< 4.00	< 4.00
O=c1[nH]c(=O)c2c(Br)cccc2o1 [Compound I-54, 5-Bromo-3H-1,3-benzoxazine-2,4-dione]	< 4.00	< 4.00
O=C1NC(=O)C2(CC2)c2cccc(Br)c21 [Compound I-58, 8′-Bromo-2′H-spiro[cyclopropane-1,4′-isoquinoline]-1′,3′-dione]	< 4.00	< 4.00
O=C1Cc2c(F)cccc2C(=O)N1 [Compound I-72, 5-Fluoro-2,4-dihydroisoquinoline-1,3-dione]	4.52 to 5.00	< 4.00
O=C1Cc2cc(F)ccc2C(=O)N1 [Compound I-73, 6-Fluoro-2,4-dihydroisoquinoline-1,3-dione]	4.52 to 5.00	< 4.00
Cc1cccc2c1CC(=O)NC2=O [Compound I-78]	4.52 to 5.00	< 4.00
Cc1ccc2c(c1)CC(=O)NC2=O [Compound I-79]	4.00 to 4.52	< 4.00
COc1cc(F)ccc1N1C[C@@H]2C(=O)NC(=O)[C@@H]2C1 [Compound I-124]	4.00 to 4.52	< 4.00
CCCOc1ccc(N2C[C@@H]3C(=O)NC(=O)[C@@H]3C2)cc1 [Compound I-132]	4.00 to 4.52	< 4.00
CCOC(=O)c1cccc(N2C[C@@H]3C(=O)NC(=O)[C@@H]3C2)c1 [Compound I-133]	4.52 to 5.00	< 4.00
O=C1NC(=O)[C@@H]2CN(c3ccc(Oc4ccccc4)cc3)C[C@H]12 [Compound I-151]	4.00 to 4.52	< 4.00
O=C1NC(=O)[C@@H]2CN(C3CCCC3)C[C@H]12 [Compound I-159]	< 4.00	< 4.00
Nc1ccc2c(c1)C1(CC(=O)NC1=O)NC2=O (stereo not shown) [Compound I-175]	< 4.00	< 4.00
O=C1CC2(C(=O)N1)C(=O)Nc1ccccc12 (stereo not shown) [Compound I-176]		< 4.00
O=C1CC2(CCc3ccccc32)C(=O)N1 (stereo not shown) [Compound I-185]	< 4.00	< 4.00
O=C1CC2(Cc3ccccc3C2)C(=O)N1 [Compound I-186, 1,3-dihydrospiro[indene-2,3′-pyrrolidine]-2′,5′-dione]	4.00 to 4.52	< 4.00
O=C1Cc2cccc(Oc3ccccc3)c2CC(=O)N1 [Compound I-262]		< 4.00
O=C1NC(=O)c2cc(NC(=O)N3CC=C(c4ccc(O)cc4)CC3)ccc21 [Compound I-378]	4.00 to 4.52	

Next, values leading:

pIC50 [1]	pIC50 (CRBN-DDB1)	SMILES
< 4.00	4.52 to 5.00	O=C1Cc2cccc(C(=O)N3CCc4ccccc43)c2C(=O)N1 [Compound I-1, 8-(2,3-Dihydroindole-1-carbonyl)-2,4-dihydroisoquinoline-1,3-dione]
< 4.00	4.00 to 4.52	NC(=O)c1ccccc1-c1cccc2c1C(=O)NC(=O)C2 [Compound I-2, 2-(1,3-Dioxo-2,4-dihydroisoquinolin-8-yl)benzamide]
< 4.00	4.00 to 4.52	O=C1Cc2cccc(C(=O)N3CCOc4ccccc43)c2C(=O)N1 [Compound I-3, 8-(2,3-Dihydro-1,4-benzoxazine-4-carbonyl)-2,4-dihydroisoquinoline-1,3-dione]
4.00 to 4.52	< 4.00	Cc1ccccc1-c1ccc2c(c1)C(=O)NC(=O)C2 [Compound I-4, 7-(2-Methylphenyl)-2,4-dihydroisoquinoline-1,3-dione]
< 4.00	4.00 to 4.52	O=C1Cc2ccccc2C(=O)N1 [Compound I-5, 2,4-Dihydroisoquinoline-1,3-dione]
< 4.00	< 4.00	Cc1ncoc1-c1ccc2c(c1)C(=O)NC(=O)C2 [Compound I-6, 7-(4-Methyl-1,3-oxazol-5-yl)-2,4-dihydroisoquinoline-1,3-dione]
> 5.00	4.52 to 5.00	Nc1ccc2c(c1)C(=O)NC(=O)C2 [Compound I-12]
< 4.00	4.00 to 4.52	Nc1ccccc1-c1ccc2c(c1)C(=O)NC(=O)C2 [Compound I-17, 7-(2-aminophenyl)-2,4-dihydroisoquinoline-1,3-dione]
< 4.00	4.00 to 4.52	COc1ccccc1-c1ccc2c(c1)C(=O)NC(=O)C2 [Compound I-18, 7-(2-Methoxyphenyl)-2,4-dihydroisoquinoline-1,3-dione]
4.00 to 4.52	4.52 to 5.00	CC(=O)Nc1ccc2c(c1)C(=O)NC(=O)C2 [Compound I-21]
< 4.00	4.52 to 5.00	Nc1cccc2c1C(=O)NC(=O)C2 [Compound I-22, 8-Amino-2,4-dihydroisoquinoline-1,3-dione]
4.52 to 5.00	4.00 to 4.52	O=C1Cc2cccc(O)c2C(=O)N1 [Compound I-23]
	4.52 to 5.00	Cc1ccccc1-c1cccc2c1C(=O)NC(=O)C2 [Compound I-24]
> 5.00	> 5.00	O=C1Cc2cccc(Oc3ccccc3)c2C(=O)N1 [Compound I-26, 8-phenoxy-2,4-dihydroisoquinoline-1,3-dione]
4.00 to 4.52	4.00 to 4.52	O=C1Cc2cccc(Nc3ccccc3)c2C(=O)N1 [Compound I-27, 8-(Phenylamino)-2,4-dihydroisoquinoline-1,3-dione]
4.52 to 5.00	4.00 to 4.52	CC(=O)Nc1cccc2c1C(=O)NC(=O)C2 [Compound I-42]

pIC50 [1]	pIC50 (CRBN-DDB1)	SMILES
4.00 to 4.52	4.00 to 4.52	N#Cc1ccccc1-c1cccc2c1C(=O)NC(=O)C2 [Compound I-52, 2-(1,3-Dioxo-2,4-dihydroisoquinolin-8-yl)benzonitrile]
> 5.00	4.00 to 4.52	O=C1Cc2cccc(NC(=O)c3ccccc3)c2C(=O)N1 [Compound I-62]
4.52 to 5.00	4.52 to 5.00	NCc1cccc2c1C(=O)NC(=O)C2 [Compound I-68]
> 5.00	> 5.00	Nc1cccc2c1C(=O)NC(=O)C2(F)F [Compound I-71, 8-Amino-4,4-difluoro-2H-isoquinoline-1,3-dione]
4.00 to 4.52	4.00 to 4.52	O=C1Cc2ccc(F)cc2C(=O)N1 [Compound I-74, 7-Fluoro-2,4-dihydroisoquinoline-1,3-dione]
4.52 to 5.00	4.00 to 4.52	O=C1Cc2cccc(F)c2C(=O)N1 [Compound I-75, 8-Fluoro-2,4-dihydroisoquinoline-1,3-dione]
4.52 to 5.00	4.52 to 5.00	Nc1ccc2c(c1)CC(=O)NC2=O [Compound I-77]
4.52 to 5.00	4.00 to 4.52	O=C1Cc2cccc(N3CCCCC3=O)c2C(=O)N1 [Compound I-193]
	> 5.00	O=C1Cc2cccc(Oc3ccccc3Br)c2C(=O)N1 [Compound I-205]
	> 5.00	O=C1Cc2cccc(Oc3ccc(Br)cc3)c2C(=O)N1 [Compound I-206, 8-(4-Bromophenoxy)-2,4-dihydroisoquinoline-1,3-dione]
	> 5.00	O=C1Cc2cccc(Oc3cccc(Br)c3)c2C(=O)N1 [Compound I-207]
	4.52 to 5.00	O=C1Cc2cccc(C(=O)N(Cc3ccccc3)Cc3ccccc3)c2C(=O)N1 [Compound I-208]
	4.52 to 5.00	O=C1Cc2cccc(Oc3ccccc3[N+](=O)[O-])c2C(=O)N1 [Compound I-261]
	4.00 to 4.52	Nc1ccccc1Oc1cccc2c1C(=O)NC(=O)C2 [Compound I-263]
	4.52 to 5.00	O=C1Cc2cccc(Oc3cccnc3)c2C(=O)N1 [Compound I-271]
